For experiment [1], the target named is T1, MMP-9 (Homo sapiens, UniProt P14780). As to conditions: cited from earlier work.
In experiment [2] the test system is ADAMTS-1. As to conditions: ADAMTS-1 aggrecanase activity; cited from earlier work.
The target of experiment [3] is T1, MMP-9. As to conditions: cited from earlier work. The source holds these as a separate data set.
Experiment [4] deals with T2, MMP-2 (Homo sapiens, UniProt P08253).
T2 sequence (P08253 110-660): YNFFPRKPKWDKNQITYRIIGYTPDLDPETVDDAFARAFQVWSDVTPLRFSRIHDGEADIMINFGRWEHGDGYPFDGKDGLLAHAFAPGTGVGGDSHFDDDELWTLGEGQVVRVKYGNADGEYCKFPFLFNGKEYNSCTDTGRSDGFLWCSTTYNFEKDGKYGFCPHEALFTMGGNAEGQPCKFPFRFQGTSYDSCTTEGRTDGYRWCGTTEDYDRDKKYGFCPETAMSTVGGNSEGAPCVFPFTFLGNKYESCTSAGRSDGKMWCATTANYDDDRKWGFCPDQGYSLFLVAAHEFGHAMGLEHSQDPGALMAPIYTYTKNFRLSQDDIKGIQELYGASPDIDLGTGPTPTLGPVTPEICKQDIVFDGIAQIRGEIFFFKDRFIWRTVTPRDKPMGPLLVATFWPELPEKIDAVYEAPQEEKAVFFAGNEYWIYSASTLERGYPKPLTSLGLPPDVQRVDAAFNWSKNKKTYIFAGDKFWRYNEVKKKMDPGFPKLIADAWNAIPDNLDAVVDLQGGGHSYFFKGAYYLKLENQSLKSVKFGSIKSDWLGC
As to conditions: cited from earlier work.

In experiment [5] the test system is MT1-MMP. The following applies: cited from earlier work.
Experiment [6] has as its system MMP-13. The following applies: MMP-13, inhibitor concentration 50 μM; cited from earlier work.
In experiment [7] the test system is ADAM-10. The following applies: ADAM-10, inhibitor concentration 50 μM; cited from earlier work.
For experiment [8], the system named is MMP-7. As to conditions: cited from earlier work.
In experiment [9] the test system is ADAMTS-4. As to conditions: ADAMTS-4 aggrecanase activity; cited from earlier work.
The subject of experiment [10] is MMP-1. The following applies: MMP-1, inhibitor concentration 50 μM; cited from earlier work.
Experiment [11] deals with MMP-1. As to conditions: cited from earlier work.
Experiment [12] has as its target T3, MMP-8 (Homo sapiens, UniProt P22894). As to conditions: read-out: KM value for MMP hydrolysis; cited from earlier work.
Experiment [13] deals with T2, MMP-2. As to conditions: read-out: KM value for MMP hydrolysis; cited from earlier work.
The subject of experiment [14] is ADAMTS-4. As to conditions: read-out: KM value for ADAMTS-4 hydrolysis; substrate kinetics; cited from earlier work.
The target of experiment [15] is T4, ADAMTS-4 (aggrecanase-1) (Homo sapiens, UniProt O75173).
T4 sequence (O75173 213-685 limits assumed): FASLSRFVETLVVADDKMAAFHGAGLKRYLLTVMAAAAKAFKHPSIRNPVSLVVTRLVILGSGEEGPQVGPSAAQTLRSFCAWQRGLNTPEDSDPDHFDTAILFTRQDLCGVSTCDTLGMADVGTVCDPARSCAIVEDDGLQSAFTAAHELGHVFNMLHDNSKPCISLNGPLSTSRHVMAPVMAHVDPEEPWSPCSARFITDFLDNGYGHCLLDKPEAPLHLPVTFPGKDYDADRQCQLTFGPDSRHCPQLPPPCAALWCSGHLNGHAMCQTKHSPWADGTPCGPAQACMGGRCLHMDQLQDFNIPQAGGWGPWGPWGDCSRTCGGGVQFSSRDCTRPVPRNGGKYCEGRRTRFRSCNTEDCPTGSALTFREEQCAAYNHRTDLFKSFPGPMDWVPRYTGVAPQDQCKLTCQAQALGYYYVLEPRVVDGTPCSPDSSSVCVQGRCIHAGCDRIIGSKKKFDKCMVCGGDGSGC
In words: ADAMTS-4 inhibition assay, FRET substrate hydrolysis. Format: biochemical.

Experiment [16] deals with T4, ADAMTS-4 (aggrecanase-1). As to the kind of experiment: ADAMTS-4 inhibition, RP-HPLC analysis of cleavage products.
The target in experiment [17] is T2, MMP-2. As to conditions: cited from earlier work. The source holds these as a separate data set.
Experiment [18] deals with T3, MMP-8. In words: MMP-8 inhibition assay with FRET substrates. Format: biochemical.
Experiment [19] addresses T1, MMP-9. As to the kind of experiment: MMP-9 inhibition assay with FRET substrates. The following applies: MMP-9, substrate fMMPSlong. Format: biochemical.
The target in experiment [20] is T5, MMP-12 (Homo sapiens, UniProt P39900). As to the kind of experiment: MMP-12 inhibition assay with FRET substrates. Format: biochemical. The following applies: MMP-12, substrate fMMPSshort.
For experiment [21], the target named is T6, ADAMTS-5 (Homo sapiens, UniProt Q9UNA0).
T6 sequence (Q9UNA0 262-731 limits assumed): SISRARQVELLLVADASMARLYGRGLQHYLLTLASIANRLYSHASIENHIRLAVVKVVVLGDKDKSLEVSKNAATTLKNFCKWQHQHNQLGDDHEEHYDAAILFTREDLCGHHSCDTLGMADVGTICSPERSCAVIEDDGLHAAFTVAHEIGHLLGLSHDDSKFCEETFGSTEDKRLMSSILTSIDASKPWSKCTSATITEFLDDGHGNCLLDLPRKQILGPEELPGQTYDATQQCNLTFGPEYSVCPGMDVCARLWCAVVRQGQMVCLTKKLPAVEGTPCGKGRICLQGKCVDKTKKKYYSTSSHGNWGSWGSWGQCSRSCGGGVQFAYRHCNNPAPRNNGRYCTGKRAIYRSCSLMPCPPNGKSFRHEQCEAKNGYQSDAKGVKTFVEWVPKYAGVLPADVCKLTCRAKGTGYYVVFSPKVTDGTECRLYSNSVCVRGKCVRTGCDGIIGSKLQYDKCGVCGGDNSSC
As to the kind of experiment: ADAMTS-5 inhibition, RP-HPLC analysis of cleavage products. The following applies: ADAMTS-5, data not shown. Format: biochemical.

The target in experiment [22] is T2, MMP-2. As to the kind of experiment: MMP-2 inhibition assay with FRET substrates. It counts as biochemical.
Experiment [23] addresses T6, ADAMTS-5. In words: ADAMTS-5 inhibition assay, FRET substrate hydrolysis. Format: biochemical.
Experiment [24] deals with T1, MMP-9. The following applies: read-out: KM value for MMP hydrolysis; cited from earlier work.
Experiment [25] deals with T5, MMP-12. As to conditions: read-out: KM value for MMP hydrolysis; cited from earlier work.

The text below walks through data of publication PMC2782546 (Chemical biology & drug design, 2009).

In general, IC50 refers to the point on the concentration scale where inhibition reaches its midpoint. What is called EC50 is the concentration giving half of the maximal effect. For orientation: Km means the substrate concentration at which the rate is half of its maximum.

Where two headings read alike, the source gives them in different places. The star is where a group is joined. Lys(Fam) = Lys(Fam): lysine whose ε-amino group carries Fam (fluorescein), added using fluorescein-5-isothiocyanate; Dnp = O=[N+]([O-])c1ccc(*)c([N+](=O)[O-])c1; Mca = COc1ccc2c(CC(=O)*)cc(=O)oc2c1

T1 sequence (P14780 94-707, species assumed): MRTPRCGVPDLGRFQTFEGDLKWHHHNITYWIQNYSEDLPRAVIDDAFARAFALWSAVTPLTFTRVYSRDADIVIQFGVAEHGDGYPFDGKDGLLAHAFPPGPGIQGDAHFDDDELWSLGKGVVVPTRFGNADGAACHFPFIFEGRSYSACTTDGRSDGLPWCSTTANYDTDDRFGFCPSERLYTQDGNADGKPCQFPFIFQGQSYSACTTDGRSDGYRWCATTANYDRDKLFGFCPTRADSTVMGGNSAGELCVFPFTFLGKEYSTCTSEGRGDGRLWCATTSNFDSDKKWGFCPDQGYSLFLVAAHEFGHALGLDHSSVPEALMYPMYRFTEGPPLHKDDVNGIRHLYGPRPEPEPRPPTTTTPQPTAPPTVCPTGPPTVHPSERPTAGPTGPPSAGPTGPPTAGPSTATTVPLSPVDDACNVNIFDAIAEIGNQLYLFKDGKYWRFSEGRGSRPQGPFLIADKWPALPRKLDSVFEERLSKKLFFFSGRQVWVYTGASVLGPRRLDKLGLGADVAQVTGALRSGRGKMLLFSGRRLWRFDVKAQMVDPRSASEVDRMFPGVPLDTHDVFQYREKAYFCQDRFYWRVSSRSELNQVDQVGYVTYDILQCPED
T3 sequence (P22894 101-467, species assumed): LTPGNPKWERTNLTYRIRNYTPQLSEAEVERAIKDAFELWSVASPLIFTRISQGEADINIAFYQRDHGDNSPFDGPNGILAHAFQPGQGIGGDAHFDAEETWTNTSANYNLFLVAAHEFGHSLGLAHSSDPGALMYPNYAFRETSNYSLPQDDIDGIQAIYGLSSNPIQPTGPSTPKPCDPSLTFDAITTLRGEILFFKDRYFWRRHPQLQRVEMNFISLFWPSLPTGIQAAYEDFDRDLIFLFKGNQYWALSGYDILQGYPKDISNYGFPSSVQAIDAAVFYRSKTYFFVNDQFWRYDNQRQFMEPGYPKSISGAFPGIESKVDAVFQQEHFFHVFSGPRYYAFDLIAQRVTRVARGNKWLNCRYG
T5 sequence (P39900 106-470, species assumed): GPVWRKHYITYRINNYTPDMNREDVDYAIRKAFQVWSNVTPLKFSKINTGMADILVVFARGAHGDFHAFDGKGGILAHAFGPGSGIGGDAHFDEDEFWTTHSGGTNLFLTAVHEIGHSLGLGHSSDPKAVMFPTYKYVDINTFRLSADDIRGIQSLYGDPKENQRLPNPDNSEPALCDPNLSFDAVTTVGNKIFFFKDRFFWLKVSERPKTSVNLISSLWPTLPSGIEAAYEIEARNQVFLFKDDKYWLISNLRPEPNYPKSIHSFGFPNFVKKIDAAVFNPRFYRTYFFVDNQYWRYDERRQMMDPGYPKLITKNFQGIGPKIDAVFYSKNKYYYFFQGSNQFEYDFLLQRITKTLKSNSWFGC

For `O=c1cc(-c2ccc(O)c(O)c2)oc2cc(O)cc(O)c12` [luteolin], the Ki in experiment [1] (MMP-9, noncompetitive mechanism) is 5.4 µM.
Turning to `O=C(O[C@@H]1Cc2c(O)cc(O)cc2O[C@@H]1c1cc(O)c(O)c(O)c1)c1cc(O)c(O)c(O)c1` [Compound 1, (−)-epigallocatechin gallate], the IC50 in [2] is 0.2 to 0.25 µM; in experiment [3] (MMP-9), 0.8 to 13 µM; in experiment [4] (MMP-2) it was 6 to 8 µM; in experiment [5] it was 0.019 µM; in experiment [8], 1.6 µM; in [9], 0.1 to 0.15 µM. Further, the inhibition in experiment [6], in experiment [7] and in experiment [10] was 14–30% throughout.
Consider `O=c1c(O)c(-c2ccc(O)c(O)c2)oc2cc(O)cc(O)c12` [quercetin], for which the IC50 in experiment [11] was 39.6 µM.
For `O=c1cc(-c2ccc(O)c(O)c2)oc2cc(O[C@@H]3O[C@H](CO)[C@@H](O)[C@H](O)[C@H]3O)cc(O)c12` [luteolin-7-O-glucoside], the EC50 in experiment [1] (MMP-9) was 4.6 µM.
With “(Gly-Pro-Hyp)5-Gly-Pro-Lys(Mca)-Gly-Pro-Gln-Gly~Leu-Arg-Gly-Gln-Lys(Dnp)-Gly-Val-Arg-(Gly-Pro-Hyp)5-NH2 [fMMPSlong]”, the figures for the Km in experiment [12] and in experiment [13] were 7.6 µM and 17.2 µM, respectively.
`O=c1c(O)c(-c2ccc(O)cc2)oc2cc(O)cc(O)c12` [kaempferol]: in experiment [11], the IC50 was 43.7 µM.
Turning to “Lys(Fam)-Asp-Val-Gln-Glu-Phe-Arg-Gly-Val-Thr-Ala-Val-Ile-Arg-Lys(Tamra)-Lys-Gly-Lys-NH2 ({Lys(Fam)}-DVQEFRGVTAVIRK(Tamra)KGK-NH2) [fTSS1]”, the Km in experiment [14] was around 35 µM.
Take `C(=C/c1ccccc1)/c1ccccc1` [Compound 6, cis-1,2-diphenylethylene]: the IC50 in experiment [15] was around 100 µM; in experiment [16] it was above 100 µM.
For the compound `Oc1ccccc1O` [Compound 9, 1,2-dihydroxybenzene], the figures for the IC50 in experiment [15] and in experiment [16] were 20 µM and above 100 µM, respectively.
The corresponding values for `C(=C\c1ccccc1)/c1ccccc1` [Compound 5, trans-1,2-diphenylethylene] are above 100 µM and above 100 µM.
As for `O=c1cc(-c2ccc(O)cc2)oc2cc(O)cc(O)c12` [apigenin], the EC50 in experiment [17] was 7.5 µM. Moreover, the IC50 in [11] is above 100 µM.
For the compound `Oc1cccc(O)c1O` [Compound 10, 1,2,3-trihydroxybenzene], the Ki in experiment [18] came out at 10.3 ± 0.94 µM; in experiment [19], 8.29 ± 0.63 µM; in experiment [20] it was 34.4 ± 3.99 µM; in experiment [22] (MMP-2, substrate fMMPSshort) it was 11.3 ± 0.52 µM; in experiment [23] (Ki, ADAMTS-5, substrate fTSSshort, apparent Ki) it was 36.9 ± 8.82 µM. In [21], the “inhibition of substrate hydrolysis by RP-HPLC analysis” value is listed as “inhibited”. Further, the “inhibition of substrate hydrolysis by fluorescence analysis” value in experiment [23] (ADAMTS-5, data not shown) is given as “inhibited”.
Consider `COc1ccc(C=Cc2cc(O)cc(OC3OC(CO)C(O)C(O)C3O)c2)cc1O` (stereo not shown) [Compound 8, 2-[3-hydroxy-5-[2-(3-hydroxy-4-methoxyphenyl)ethenyl]phenoxy]-6-(hydroxymethyl)oxane-3,4,5-triol], for which the IC50 in [15] is 50 µM; in [16], above 100 µM.
The corresponding values for `COc1ccc(/C=C/c2cc(O)cc(OC3OC(CO)C(O)C(O)C3O)c2)cc1` (stereo not shown) [Compound 7, 2-[3-hydroxy-5-[(E)-2-(4-methoxyphenyl)ethenyl]phenoxy]-6-(hydroxymethyl)oxane-3,4,5-triol] are 20 µM and above 100 µM.
With “Mca-Lys-Pro-Leu-Gly-Leu-Lys(Dnp)-Ala-Arg-NH2 (Mca-KPLGLK(Dnp)AR-NH2; SMILES COc1ccc2c(CC(=O)N[C@@H](CCCCN)C(=O)N3CCC[C@H]3C(=O)N[C@@H](CC(C)C)C(=O)NCC(=O)N[C@@H](CC(C)C)C(=O)N[C@@H](CCCCNc3ccc([N+](=O)[O-])cc3[N+](=O)[O-])C(=O)N[C@@H](C)C(=O)N[C@@H](CCCNC(=N)N)C(N)=O)cc(=O)oc2c1) [fMMPSshort]”, the Km in experiment [24] is 27.7 µM; in experiment [25], 130 µM.
As for `Oc1cc(O)cc(/C=C/c2ccc(O)c(O)c2)c1` [Compound 3, (E)-4-[2-(3,5-dihydroxyphenyl)ethenyl]1,2-benzediol], in experiment [21], the “inhibition of substrate hydrolysis by RP-HPLC analysis” value is listed as “inhibited”. For the same compound, the Ki was 10 ± 0.89 µM in experiment [22] (MMP-2, substrate fMMPSlong) and 12.2 ± 1.82 µM in [22] (MMP-2, substrate fMMPSshort).
Regarding `Oc1ccc(/C=C/c2cc(O)cc(O)c2)cc1` [Compound 4, 5-[(1E)-2-(4-hydroxyphenyl)ethenyl]-1,3-benzenediol], the “inhibition of MMP-9” value in experiment [3] (prior study) is reported as “not an inhibitor”. The “inhibition of MMP-2” value in [4] (prior study) is “not an inhibitor”. Besides, the IC50 in [15] is 50 µM; in experiment [16], above 100 µM.
In the case of `O=C(O[C@@H]1Cc2c(O)cc(O)cc2O[C@@H]1c1ccc(O)c(O)c1)c1cc(O)c(O)c(O)c1` [Compound 2, (−)-epicatechin gallate], the IC50 was 0.2 to 0.25 µM in experiment [2] and 0.1 to 0.15 µM in experiment [9]. The inhibition in experiment [6], in experiment [7] and in [10] was 14–30% throughout.
